Test results taken from patent publication US8519128B2, “Pyripyropene derivatives having an ACAT2-inhibiting activity” (The Kitasato Institute, priority 2007, dated 2013).

Assays:
ACAT 2 = molecular target: T1, ACAT 2 (Mus musculus, UniProt O88908); test: ACAT-inhibiting activity, mouse liver microsome membrane fraction, [14C]oleoyl-CoA; format: biochemical; settings: for IC50: mouse liver microsome, 5 minutes at 37° C.; for Specific activity: (inhibitory activity of test compound)/(inhibitory activity of pyripyropene A): relative to pyripyropene A
T1 construct: The source of ACAT 2 enzyme used was a membrane fraction derived from mouse liver microsome; from tissue; host or cells: mouse liver (microsome fraction)
T1 sequence (O88908 1-525): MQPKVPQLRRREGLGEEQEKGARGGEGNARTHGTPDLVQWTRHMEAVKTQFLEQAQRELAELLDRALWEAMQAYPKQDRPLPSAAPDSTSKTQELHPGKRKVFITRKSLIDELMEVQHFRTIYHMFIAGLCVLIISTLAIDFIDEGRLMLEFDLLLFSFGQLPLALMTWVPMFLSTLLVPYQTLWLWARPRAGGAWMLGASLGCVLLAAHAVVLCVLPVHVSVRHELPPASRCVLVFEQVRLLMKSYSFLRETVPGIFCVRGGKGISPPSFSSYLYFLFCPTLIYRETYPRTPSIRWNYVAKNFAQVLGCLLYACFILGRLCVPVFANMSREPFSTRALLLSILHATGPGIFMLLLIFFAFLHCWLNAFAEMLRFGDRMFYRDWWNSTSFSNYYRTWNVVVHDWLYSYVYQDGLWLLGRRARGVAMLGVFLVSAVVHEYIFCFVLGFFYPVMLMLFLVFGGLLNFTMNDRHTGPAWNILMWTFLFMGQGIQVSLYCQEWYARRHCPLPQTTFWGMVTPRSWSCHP
Outline: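 Enzyme source: mouse liver microsomal membrane fraction (100000×g pellet) at 5 mg/ml protein in 50 mM Tris-HCl pH 7.8, 1 mM EDTA, 1 mM PMSF; substrate [14C]oleoyl-CoA. Chloroform-extracted lipids resolved by silica TLC in hexane/diethyl ether/acetic acid (70:30:1).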

[1] = tested on: apolipoprotein E-deficient mice; test: Total plasma cholesterol after 14 days of daily oral administration, high-fat feed; format: in vivo; settings: for total plasma cholesterol at day 14 (% of day 0): day 0 taken as 100%, control 212.2%; for suppression of the increase in total plasma cholesterol compared with pyripyropene A: oral administration, apolipoprotein E-deficient mice
Method: Ten-week old apolipoprotein E-deficient mice (males, purchased from Jackson Laboratories) were kept under cycles of artificial light (day) for 12 hours and dark (night) for 12 hours by appropriately feeding a standard high-fat feed (D12079B, Research Diet). Before starting a test for each test compound, 100 μL of blood were collected from the caudal vein of each animal to measure the total cholesterol concentration in plasma using a commercially available kit (Determiner TC 555, Kyowa Medex). […] The test compound was orally administered daily at the start of the artificial light cycle of each day.
Blood was collected at the start of the artificial light cycle on day 14 of administration of the test compound to measure the total plasma cholesterol. The total plasma cholesterol before administration of the test compound (on day 0) was taken as 100%, and the percent increase in total plasma cholesterol on day 14 after administration of the test compound started was calculated.

SMILES | IC50 (ACAT 2) [nM] | Specific activity: (inhibitory activity of test compound)/(inhibitory activity of pyripyropene A) (ACAT 2) | total plasma cholesterol at day 14 (% of day 0) ([1]; 1 mg/kg oral daily) [%] | total plasma cholesterol at day 14 (% of day 0) ([1]; 10 mg/kg oral daily) [%] | total plasma cholesterol at day 14 (% of day 0) ([1]; 50 mg/kg oral daily) [%] | suppression of the increase in total plasma cholesterol compared with pyripyropene A [1]
CC12COC(c3ccccc3)O[C@H]1CC[C@@]1(C)C2C[C@H](OC(=O)c2ccc(C#N)cc2)[C@@]2(C)Oc3cc(-c4cccnc4)oc(=O)c3[C@H](O)C12 (stereo partly drawn) [PRD 041, 1,11-O-benzylidene-7-O-p-cyanobenzoyl-1,7,11-trideacetylpyripyropene A] | 10 to 100 | + (5 > specific activity > 1) | 102.4 | 88.2 | 101.1 | to a greater degree than did pyripyropene A
CC(C)C(=O)OCC1(C)C2C[C@H](OC(=O)c3ccc(C#N)cc3)[C@@]3(C)Oc4cc(-c5cccnc5)oc(=O)c4[C@H](O)C3[C@@]2(C)CC[C@@H]1OC(=O)C(C)C (stereo partly drawn) [PRD 056, 7-O-p-cyanobenzoyl-1,11-di-(O-isobutyryl)-1,7,11-trideacetylpyripyropene A] | 10 to 100 | +++ (50 > specific activity > 10) | 148.0 | 114.8 | 86.1 | to a greater degree than did pyripyropene A
